Patent US9839629B2, “Inhibitors of the renal outer medullary potassium channel” (Merck Sharp & Dohme Corp., priority 2013, dated 2017)

These molecules were tested against T1, ROMK (Kir1.1) channel (Homo sapiens, UniProt P48048) (assay: Thallium Flux Assay).
T1 sequence (P48048 1-391): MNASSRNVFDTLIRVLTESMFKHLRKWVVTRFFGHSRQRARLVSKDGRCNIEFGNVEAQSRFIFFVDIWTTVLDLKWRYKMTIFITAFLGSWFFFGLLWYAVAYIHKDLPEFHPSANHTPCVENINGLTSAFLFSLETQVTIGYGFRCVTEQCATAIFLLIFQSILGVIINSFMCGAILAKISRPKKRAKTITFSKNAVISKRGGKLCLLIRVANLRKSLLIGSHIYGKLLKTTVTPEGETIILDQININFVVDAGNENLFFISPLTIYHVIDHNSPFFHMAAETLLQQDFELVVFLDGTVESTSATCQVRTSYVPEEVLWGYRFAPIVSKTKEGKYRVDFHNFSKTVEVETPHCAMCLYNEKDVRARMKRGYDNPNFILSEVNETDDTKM
Type: cell-based
Procedure: A Thallium Flux Assay was performed on each of the final product compounds in the Examples. When the final product of an Example was an HCl salt, the salt was run in the Assay. This assay has been described previously; see, e.g., PCT Published Application WO 2013/062900.

Row | SMILES | IC50 [nM]
1 | Cc1c([C@@H](O)CN2CCC3(CC2)CCN(C2=CC(=O)OC2C)CC3)ccc2c1COC2=O (stereo partly drawn) [Example 37, 5-((1R)-1-hydroxy-2-(9-(2-methyl-5-oxo-2,5-dihydrofuran-3-yl)-3,9-diazaspiro[5.5]undecan-3-yl)ethyl)-4-methylisobenzofuran-1(3H)-one] | 140
2 | CC1=C(N2CCC3(CCN(C[C@@H](O)c4ccc(-n5cnnn5)nc4C)CC3)CC2)COC1=O [Example 46, (S)-4-(9-(2-hydroxy-2-(2-methyl-6-(1H-tetrazol-1-yl)pyridin-3-yl)ethyl)-3,9-diazaspiro[5.5]undecan-3-yl)-3-methylfuran-2(5H)-one] | 38
3 | CC1=C(N2CCC3(CCN(C[C@@H](O)c4cccc(-n5cnnn5)n4)CC3)CC2)COC1=O [Example 6B, (R)-4-(9-(2-(6-(1H-tetrazol-1-yl)pyridin-2-yl)-2-hydroxyethyl)-3,9-diazaspiro[5.5]undecan-3-yl)-3-methylfuran-2(5H)-one] | 20
4 | Cc1c([C@@H](O)CN2CCC3(CC2)CCN(C2=CC(=O)OC2)C(=O)C3)ccc2c1COC2=O [Example 27, (R)-9-(2-hydroxy-2-(4-methyl-1-oxo-1,3-dihydroisobenzofuran-5-yl)ethyl)-3-(5-oxo-2,5-dihydrofuran-3-yl)-3,9-diazaspiro[5.5]undecan-2-one] | 433
5 | Cc1c(N2CCC3(CCN(C[C@H](O)c4ccc5c(ccc6nnnn65)c4)CC3)CC2)c(=O)c1=O [Example 88, (R)-3-(9-(2-hydroxy-2-(tetrazolo[1,5-a]quinolin-7-yl)ethyl)-3,9-diazaspiro[5.5]undecan-3-yl)-4-methylcyclobut-3-ene-1,2-dione] | 223
6 | O=C1C=C(N2CCC3(CCN(C(=O)Cc4c(F)cc(-n5cnnn5)cc4F)CC3)CC2)CO1 [Example 100, 4-(9-{[2,6-difluoro-4-(1H-tetrazol-1-yl)phenyl]acetyl}-3,9-diazaspiro[5.5]undec-3-yl)furan-2(5H)-one] | 408
7 | CC1=C(N2CCC3(CCN(C[C@H](O)c4ccc5c(c4C)COC5=O)CC3)[C@@H](F)C2)COC1=O [Example 34, 5-((R)-2-((R)-7-fluoro-9-(4-methyl-5-oxo-2,5-dihydrofuran-3-yl)-3,9-diazaspiro[5.5]undecan-3-yl)-1-hydroxyethyl)-4-methylisobenzofuran-1(3H)-one] | 275
8 | CC1=C(N2CCC3(CC2)CCN([C@@H](CO)c2ccc(-n4cnnn4)cc2C)CC3)COC1=O [Example 58, (R)-4-(9-(2-hydroxy-1-(2-methyl-4-(1H-tetrazol-1-yl)phenyl)ethyl)-3,9-diazaspiro[5.5]undecan-3-yl)-3-methylfuran-2(5H)-one] | 256
9 | O=C1C=C(N2CCC3(CCN(C[C@H](O)c4ccc(-n5cnnn5)nc4)CC3)OC2=O)CO1 [Example 30, (R)-9-(2-(6-(1H-tetrazol-1-yl)pyridin-3-yl)-2-hydroxyethyl)-3-(5-oxo-2,5-dihydrofuran-3-yl)-1-oxa-3,9-diazaspiro[5.5]undecan-2-one] | 171
10 | CC1=C(N2CCC3(CCN(C[C@H](O)c4cccc(-n5cnnn5)n4)CC3)CC2)COC1=O [Example 6A, (S)-4-(9-(2-(6-(1H-tetrazol-1-yl)pyridin-2-yl)-2-hydroxyethyl)-3,9-diazaspiro[5.5]undecan-3-yl)-3-methylfuran-2(5H)-one] | 22
11 | Cc1c([C@H](O)CN2CCC3(CC2)CCN(C2=CC(=O)OC2)CC3)ccc2c1COC2=O [Example 5, (S)-5-(1-hydroxy-2-(9-(5-oxo-2,5-dihydrofuran-3-yl)-3,9-diazaspiro[5.5]undecan-3-yl)ethyl)-4-methylisobenzofuran-1(3H)-one] | 63
12 | CC1=C(N2CCC3(CCN(C[C@H](O)c4ccnc(-n5cnnn5)c4)CC3)CC2)COC1=O [Example 61, (R)-4-(9-(2-(2-(1H-tetrazol-1-yl)pyridin-4-yl)-2-hydroxyethyl)-3,9-diazaspiro[5.5]undecan-3-yl)-3-methylfuran-2(5H)-one] | 33
13 | O=C1C=C(N2CCC3(CCN(CCc4ccc5c(c4)COC5=O)CC3)CC2)CO1 [Example 1, 5-(2-(9-(5-oxo-2,5-dihydrofuran-3-yl)-3,9-diazaspiro[5.5]undecan-3-yl)ethyl)isobenzofuran-1(3H)-one] | 17
14 | Cc1c([C@@H](O)CN2CCC3(CC2)CCN(C2=C(c4ccccc4)C(=O)OC2)CC3)ccc2c1COC2=O [Example 41, (R)-5-(1-hydroxy-2-(9-(5-oxo-4-phenyl-2,5-dihydrofuran-3-yl)-3,9-diazaspiro[5.5]undecan-3-yl)ethyl)-4-methylisobenzofuran-1(3H)-one] | 168
15 | Cc1c([C@@H](O)CN2CCC3(CC2)CCN(c2c(C4CC4)c(=O)c2=O)CC3)ccc2c1COC2=O [Example 80, (R)-3-cyclopropyl-4-(9-(2-hydroxy-2-(4-methyl-1-oxo-1,3-dihydroisobenzofuran-5-yl)ethyl)-3,9-diazaspiro[5.5]undecan-3-yl)cyclobut-3-ene-1,2-dione] | 141
16 | CC1=C(N2CCC3(CCN(C[C@H](O)c4ccc5c(c4C)COC5=O)CC3)CC2=O)COC1=O [Example 28, (R)-9-(2-hydroxy-2-(4-methyl-1-oxo-1,3-dihydroisobenzofuran-5-yl)ethyl)-3-(4-methyl-5-oxo-2,5-dihydrofuran-3-yl)-3,9-diazaspiro[5.5]undecan-2-one] | 552
17 | Cc1c(N2CCC3(CCN(C[C@H](O)c4ccc(-n5cnnn5)cn4)CC3)CC2)c(=O)c1=O [Example 87, (S)-3-(9-(2-(5-(1H-tetrazol-1-yl)pyridin-2-yl)-2-hydroxyethyl)-3,9-diazaspiro[5.5]undecan-3-yl)-4-methylcyclobut-3-ene-1,2-dione] | 688
18 | C[C@H]1Cc2cc([C@H](O)CN3CCC4(CC3)CCN(C3=CC(=O)OC3)CC4)ccc2C(=O)O1 [Example 12, (S)-6-((S)-1-hydroxy-2-(9-(5-oxo-2,5-dihydrofuran-3-yl)-3,9-diazaspiro[5.5]undecan-3-yl)ethyl)-3-methylisochroman-1-one] | 685
19 | CC1=C(N2CCC3(CCN(C[C@H](O)c4ccc(-n5cnnn5)nc4)CC3)CC2)COC1=O [Example 47, (R)-4-(9-(2-(6-(1H-tetrazol-1-yl)pyridin-3-yl)-2-hydroxyethyl)-3,9-diazaspiro[5.5]undecan-3-yl)-3-methylfuran-2(5H)-one] | 13
20 | COCO[C@H]1CN(C2=C(C)C(=O)OC2)CCC12CCN(C[C@H](O)c1ccc3c(c1C)COC3=O)CC2 [Example 95, 5-{(1R)-1-hydroxy-2-[(7R)-7-(methoxymethoxy)-9-(4-methyl-5-oxo-2,5-dihydrofuran-3-yl)-3,9-diazaspiro[5.5]undec-3-yl]ethyl}-4-methyl-2-benzofuran-1(3H)-one] | 114
21 | CC1=C(N2CCC3(CCN(C[C@H](O)c4ccc5c(c4C)COC5=O)CC3)CC2)CCC1=O [Example 76, (R)-5-(1-hydroxy-2-(9-(2-methyl-3-oxocyclopent-1-en-1-yl)-3,9-diazaspiro[5.5]undecan-3-yl)ethyl)-4-methylisobenzofuran-1(3H)-one] | 109
22 | Cc1c(N2CCC3(CCN(C[C@@H](O)c4ccc(-n5cnnn5)nn4)CC3)CC2)c(=O)c1=O [Example 84, (R)-3-(9-(2-(6-(1H-tetrazol-1-yl)pyridazin-3-yl)-2-hydroxyethyl)-3,9-diazaspiro[5.5]undecan-3-yl)-4-methylcyclobut-3-ene-1,2-dione] | 765
23 | O=C1C=C(N2CCC3(CCN(C(=O)Cc4cnc(-n5cnnn5)cn4)CC3)CC2)CO1 [Example 106, 4-(9-{[5-(1H-tetrazol-1-yl)pyrazin-2-yl]acetyl}-3,9-diazaspiro[5.5]undec-3-yl)furan-2(5H)-one] | 379
24 | O=C1C=C(N2CCC3(CCN(CC(O)c4cnc(-n5cnnn5)nc4)CC3)CC2)CO1 (centres unmarked) [Example 15, 4-(9-(2-(2-(1H-tetrazol-1-yl)pyrimidin-5-yl)-2-hydroxyethyl)-3,9-diazaspiro[5.5]undecan-3-yl)furan-2(5H)-one] | 443
25 | CC1=C(N2CCC3(CCN(C[C@H](O)c4ccc(-n5cnnn5)cc4C)CC3)CC2)CCC1=O [Example 77, (R)-3-(9-(2-hydroxy-2-(2-methyl-4-(1H-tetrazol-1-yl)phenyl)ethyl)-3,9-diazaspiro[5.5]undecan-3-yl)-2-methylcyclopent-2-enone] | 140
26 | O=C1C=C(N2CCC3(CCN(C(=O)C4CCc5cc(-n6cnnn6)ncc54)CC3)CC2)CO1 (centres unmarked) [Example 103, 4-(9-{[3-(1H-tetrazol-1-yl)-6,7-dihydro-5H-cyclopenta[c]pyridin-7-yl]carbonyl}-3,9-diazaspiro[5.5]undec-3-yl)furan-2(5H)-one] | 132
27 | CC1=C(N2CCC3(CCN(C[C@@H](O)c4ccnc(-n5cnnn5)c4)CC3)CC2)COC1=O [Example 62, (S)-4-(9-(2-(2-(1H-tetrazol-1-yl)pyridin-4-yl)-2-hydroxyethyl)-3,9-diazaspiro[5.5]undecan-3-yl)-3-methylfuran-2(5H)-one] | 39
28 | Cc1c(N2CCC3(CCN(C[C@@H](O)c4ccc(-n5cnnn5)nc4)CC3)CC2)c(=O)c1=O [Example 82, (S)-3-(9-(2-(6-(1H-tetrazol-1-yl)pyridin-3-yl)-2-hydroxyethyl)-3,9-diazaspiro[5.5]undecan-3-yl)-4-methylcyclobut-3-ene-1,2-dione] | 34
29 | COc1cc(C#N)ncc1[C@@H](O)CN1CCC2(CC1)CCN(C1=CC(=O)OC1)CC2 [Example 9, (R)-5-(1-hydroxy-2-(9-(5-oxo-2,5-dihydrofuran-3-yl)-3,9-diazaspiro[5.5]undecan-3-yl)ethyl)-4-methoxypicolinonitrile] | 220
